# Publication PMC11676910, “Manganese(II) Complexes with Non-Steroidal Anti-Inflammatory Drugs: Structure and Biological Activity” (International Journal of Molecular Sciences, 2024)
# Read-outs that look alike come from different tables or passages of the source.
# Legend:
# [1] = parameters: concentration or dose not given beside the values; conditions: free NSAID; cited from earlier work
# EB–DNA adduct (CT DNA) [2] = conditions: cited from earlier work
# CT DNA [3] = conditions: cited from earlier work; for ΔA/A0 (%) hyper-/hypo-chromism of UV band: first band listed in the cell
# [4] = Solubility of the complexes; format: physicochemical
# [5] = target: human serum albumin (HSA) (Homo sapiens, UniProt P02768); conditions: for HSA binding constant Κ(HSA): Scatchard equation, HSA 3 μM; for relative HSA fluorescence emission intensity (I/Io %) remaining: λem,max = 340 nm, lowest value reached, % of the initial HSA fluorescence
# CT DNA [6] = test: CT DNA binding by UV-vis spectroscopy titration; parameters: species or system calf; conditions: for ΔA/A0 (%) hyper-/hypo-chromism of UV band / Δλ (nm) shift of λmax: on addition of CT DNA
# [7] = target: bovine serum albumin (BSA) (Bos taurus, UniProt P02769); test: BSA tryptophan fluorescence quenching; conditions: for BSA binding constant Κ(BSA): Scatchard equation, BSA 3 μM; for relative BSA fluorescence emission intensity (I/Io, %) remaining: λem,max = 345 nm, lowest value reached, % of the initial BSA fluorescence
# [8] = ABTS radical scavenging assay; conditions: compound 0.1 mM in DMSO; absorbance at 734 nm 1 min after mixing
# EB–DNA adduct (CT DNA) [9] = test: EB displacement from EB–DNA adduct by fluorescence emission spectroscopy; format: binding, calf; conditions: for Stern–Volmer constant KSV (EB–DNA) / EB–DNA fluorescence quenching ΔI/Io (%): [EB] = 40 μM, [DNA] = 45 μM; for EB–DNA fluorescence quenching ΔI/Io (%): λexcitation 540 nm; for relative EB–DNA fluorescence intensity (I/Io, %) remaining: λemission = 592 nm, lowest value reached, % of the initial EB–DNA fluorescence; for quenching constant kq of the EB–DNA fluorescence: τo = 23 ns
# [10] = first band listed in the cell, + hyperchromism, − hypochromism
# [11] = first band listed in the cell, + red shift, − blue shift
# [12] = second band listed in the cell, <−50 = intense hypochromism
# [13] = second band listed in the cell, elim = elimination
# Chain of bovine serum albumin (BSA) (P02769 25-607): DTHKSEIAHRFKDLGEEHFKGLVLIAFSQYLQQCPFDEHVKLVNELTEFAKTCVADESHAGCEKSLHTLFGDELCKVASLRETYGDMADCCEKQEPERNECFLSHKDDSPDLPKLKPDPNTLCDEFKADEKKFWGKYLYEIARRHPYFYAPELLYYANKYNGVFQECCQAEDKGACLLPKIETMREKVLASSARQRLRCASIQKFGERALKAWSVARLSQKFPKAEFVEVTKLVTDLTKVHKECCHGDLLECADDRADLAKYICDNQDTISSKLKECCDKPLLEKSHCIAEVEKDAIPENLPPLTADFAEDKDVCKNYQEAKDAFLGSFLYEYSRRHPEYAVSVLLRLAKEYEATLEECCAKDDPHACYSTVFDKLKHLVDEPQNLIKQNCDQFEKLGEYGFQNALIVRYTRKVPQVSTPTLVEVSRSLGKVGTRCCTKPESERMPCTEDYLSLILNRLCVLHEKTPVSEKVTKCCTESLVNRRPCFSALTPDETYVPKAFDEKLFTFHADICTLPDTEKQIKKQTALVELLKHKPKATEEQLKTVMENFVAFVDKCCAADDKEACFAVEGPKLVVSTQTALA
# Chain of human serum albumin (HSA) (P02768 25-609): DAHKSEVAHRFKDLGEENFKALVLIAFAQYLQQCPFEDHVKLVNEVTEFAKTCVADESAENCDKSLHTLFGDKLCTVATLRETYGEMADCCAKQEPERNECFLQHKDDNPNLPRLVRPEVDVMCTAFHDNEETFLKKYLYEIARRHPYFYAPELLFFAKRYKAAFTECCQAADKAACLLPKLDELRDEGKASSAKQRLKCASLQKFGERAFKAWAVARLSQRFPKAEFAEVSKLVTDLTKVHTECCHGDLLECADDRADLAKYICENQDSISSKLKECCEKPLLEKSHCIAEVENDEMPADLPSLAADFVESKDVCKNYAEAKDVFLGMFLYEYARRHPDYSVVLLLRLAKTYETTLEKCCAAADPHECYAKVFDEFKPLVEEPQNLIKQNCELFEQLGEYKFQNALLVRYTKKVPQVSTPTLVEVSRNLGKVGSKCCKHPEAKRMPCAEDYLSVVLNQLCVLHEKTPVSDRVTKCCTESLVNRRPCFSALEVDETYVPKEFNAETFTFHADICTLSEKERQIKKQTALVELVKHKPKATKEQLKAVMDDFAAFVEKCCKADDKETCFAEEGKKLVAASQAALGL
Molecule,solubility [4],HSA binding constant Κ(HSA) [5],relative HSA fluorescence emission intensity (I/Io %) remaining [5] [%],ΔA/A0 (%) hyper-/hypo-chromism of UV band (CT DNA [6]; [10]),Δλ (nm) shift of λmax (CT DNA [6]; [11]),ΔA/A0 (%) hyper-/hypo-chromism of UV band (CT DNA [6]; [12]),Δλ (nm) shift of λmax (CT DNA [6]; [13]),BSA quenching constant kq(BSA) [7],BSA binding constant Κ(BSA) [7],"relative BSA fluorescence emission intensity (I/Io, %) remaining [7] [%]",% ABTS radical scavenging activity (ABTS%) [8] [%],Stern–Volmer constant KSV (EB–DNA) (EB–DNA adduct (CT DNA) [9]),EB–DNA fluorescence quenching ΔI/Io (%) (EB–DNA adduct (CT DNA) [9]),"relative EB–DNA fluorescence intensity (I/Io, %) remaining (EB–DNA adduct (CT DNA) [9]) [%]",quenching constant kq of the EB–DNA fluorescence (EB–DNA adduct (CT DNA) [9]),other results
"O=C(O)c1cc(-c2ccc(F)cc2F)ccc1O [Complex H2difl, diflunisal]",–,–,–,–,–,–,–,–,–,–,–,–,–,–,–,% ABTS radical scavenging activity (ABTS%) [1]: 76.58 ± 0.74%; EB–DNA fluorescence quenching ΔI/Io (%) (EB–DNA adduct (CT DNA) [2]): 65.0%; Stern–Volmer constant KSV (EB–DNA) (EB–DNA adduct (CT DNA) [2]): 8.59 (±0.35) × 10^5 M^–1; quenching constant kq of the EB–DNA fluorescence (EB–DNA adduct (CT DNA) [2]): 3.73 (±0.15) × 10^13 M^–1s^–1; ΔA/A0 (%) hyper-/hypo-chromism of UV band (CT DNA [3]): +15%
"[Μn(mef–O,O’)2(neoc)]∙1.5MeOH∙0.25 H2O [Complex 6]",soluble in DMSO,9.48 (±0.35) × 10^5 M^–1,5.6,+3%,0 nm,+2%,−2 nm,1.87 (±0.04) × 10^14 M^–1s^–1,1.08 (±0.38) × 10^6 M^–1,5.9,98.69 ± 0.07,4.29 (±0.32) × 10^5 M^–1,60.6,39.4,1.86 (±0.18) × 10^13 M^–1s^–1,–
"[Μn(Hdifl–O,O’)(Hdifl–O)(neoc)]·0.5MeOH [Complex 9]",soluble in DMSO,5.44 (±0.24) × 10^5 M^–1,24.9,+6%,0 nm,–,–,2.99 (±0.16) × 10^13 M^–1s^–1,5.67 (±0.27) × 10^5 M^–1,24.8,25.80 ± 1.43,1.01 (±0.42) × 10^6 M^–1,–,29.4,4.39 (±0.10) × 10^13 M^–1s^–1,–
"CC[n+]1c(-c2ccccc2)c2cc(N)ccc2c2ccc(N)cc21.[Br-] [EB, 3,8–diamino–5–ethyl–6–phenyl–phenanthridinium bromide]",–,–,–,–,–,–,–,–,–,–,–,–,–,–,–,DNA binding constant Kb (CT DNA [3]; classic intercalator): 1.23 (±0.07) × 10^5 M^−1
"O=C(O)Cc1ccccc1Nc1c(Cl)cccc1Cl [Na dicl, sodium diclofenac]",–,–,–,–,–,–,–,–,–,–,–,–,–,–,–,% ABTS radical scavenging activity (ABTS%) [1]: 76.35 ± 0.75%; EB–DNA fluorescence quenching ΔI/Io (%) (EB–DNA adduct (CT DNA) [2]): 65.0%; Stern–Volmer constant KSV (EB–DNA) (EB–DNA adduct (CT DNA) [2]): 2.47 (±0.06) × 10^5 M^–1; quenching constant kq of the EB–DNA fluorescence (EB–DNA adduct (CT DNA) [2]): 1.07 (±0.03) × 10^13 M^–1s^–1; ΔA/A0 (%) hyper-/hypo-chromism of UV band (CT DNA [3]): −7.5%
[Μn(mef–O)2(py)2(H2O)(MeOH)]∙1.5py [Complex 2],soluble in DMSO and DMF,1.92 (±0.10) × 10^6 M^–1,0.3,+7%,0 nm,< −50%,elim,–,1.03 (±0.16) × 10^6 M^–1,9.7,92.56 ± 0.74,2.30 (±0.53) × 10^5 M^–1,–,47.4,1.00 (±0.155) × 10^13 M^–1s^–1,overall quenching of albumin fluorescence ([5]; % of the fluorescence intensity initially measured for albumin (HSA per Figure 11C)): 99.7%
"CO.CO.Cc1ccc(Cl)c(Nc2ccccc2C(=O)[O-])c1Cl.Cc1ccc(Cl)c(Nc2ccccc2C(=O)[O-])c1Cl.[Mn+2].c1cnc2c(c1)ccc1cccnc12 [Complex 3, [Μn(meclf–O)2(phen)(MeOH)2]]","soluble in DMSO, and DMF",8.73 (±0.06) × 10^5 M^–1,17.0,−6%,+2 nm,–,–,–,2.71 (±0.16) × 10^6 M^–1,8.0,18.66 ± 0.71,1.18 (±0.32) × 10^6 M^–1,79.6,20.4,5.15 (±0.14) × 10^13 M^–1s^–1,–
"Cc1c(Cl)cccc1Nc1ccccc1C(=O)[O-].Cc1c(Cl)cccc1Nc1ccccc1C(=O)[O-].Cc1ccc2ccc3ccc(C)nc3c2n1.[Mn+2] [Complex 8, [Μn(tolf–O,O’)2(neoc)]]",soluble in DMSO,6.35 (±0.29) × 10^5 M^–1,7.4,+5%,+1 nm,+2%,+2 nm,1.36 (±0.53) × 10^14 M^–1s^–1,7.23 (±0.23) × 10^5 M^–1,4.4,99.63 ± 0.07,2.35 (±0.48) × 10^5 M^–1,50.0,50.0,1.02 (±0.03) × 10^13 M^–1s^–1,–
"Cc1ccc2ccc3ccc(C)nc3c2n1.O=C([O-])c1ccccc1Nc1cccc(C(F)(F)F)c1.O=C([O-])c1ccccc1Nc1cccc(C(F)(F)F)c1.[Mn+2] [Complex 7, [Μn(fluf–O,O’)2(neoc)]]",soluble in DMSO,8.33 (±0.04) × 10^5 M^–1,14.4,−6%,0 nm,–,–,4.62 (±0.11) × 10^13 M^–1s^–1,4.69 (±0.37) × 10^5 M^–1,10.8,29.70 ± 2.86,5.55(±0.12) × 10^5 M^–1,52.1,47.9,2.41 (±0.05) × 10^13 M^–1s^–1,"DNA binding constant Kb (CT DNA [6]; Wolfe–Shimer equation, buffer 150 mM NaCl, 15 mM trisodium citrate pH 7.0): 1.10 (±0.02) × 10^6 M^–1"
"CO.CO.Cc1ccc(Cl)c(Nc2ccccc2C(=O)[O-])c1Cl.Cc1ccc(Cl)c(Nc2ccccc2C(=O)[O-])c1Cl.[Mn+2].c1ccc(-c2ccccn2)nc1 [Complex 4, [Mn(meclf–O)2(bipy)(MeOH)2]]",–,9.38 (±0.29) × 10^5 M^–1,–,+15%,–,+9%,–,1.76 (±0.11) × 10^14 M^–1s^–1,9.61 (±0.06) × 10^5 M^–1,–,98.69 ± 0.06,1.54 (±0.31) × 10^5 M^–1,44.8,–,6.69 (±0.13) × 10^12 M^–1s^–1,–
"Cc1c(C)c2c(c(C)c1O)CCC(C)(C(=O)O)O2 (stereo not shown) [Trolox, 6–Hydroxy–2,5,7,8–tetramethylchromane–2–carboxylic acid, reference compound]",–,–,–,–,–,–,–,–,–,–,91.8 ± 0.17,–,–,–,–,–
"Cc1ccc(Cl)c(Nc2ccccc2C(=O)[O-])c1Cl.Cc1ccc(Cl)c(Nc2ccccc2C(=O)[O-])c1Cl.O.O.[Mn+2].c1ccncc1.c1ccncc1.c1ccncc1.c1ccncc1 [Complex 1, [Μn(meclf–O)2(py)2(H2O)2]∙2py]",soluble in DMSO and DMF,8.83 (±0.24) × 10^5 M^–1,21.8,+10%,−2 nm,–,–,–,9.58 (±0.07) × 10^5 M^–1,11.8,39.18 ± 3.27,1.15 (±0.17) × 10^5 M^–1,53.0,47.0,4.99 (±0.15) × 10^12 M^–1s^–1,–
"[Μn(dicl–O,O’)2(neoc)]∙0.25 H2O [Complex 5]",soluble in DMSO,3.09 (±0.21) × 10^5 M^–1,0.8,+8%,+2 nm,+7%,−4 nm,3.46 (±0.16) × 10^13 M^–1s^–1,6.32 (±0.32) × 10^5 M^–1,12.7,99.20 ± 0.06,7.37 (±0.05) × 10^5 M^–1,69.9,30.1,3.20 (±0.21) × 10^13 M^–1s^–1,–
